pEC50: −log10 of the molar value.
Test: Compound was tested for calcium mobilization using rat basophilic leukemia cells at concentration of 5 mM
Format: functional, cell-based
Details: RBL-1

Question: With O=P(O)(O)C[C@@H]1[C@@H](O)[C@H](O)[C@H](O)[C@H](O)[C@H]1CP(=O)(O)O as the molecule, how does the pEC50 read?
Answer: 4.15

— ChEMBL document CHEMBL1150482, “Synthesis of the 4,5 diphosphonate analog of D,L-myo-inositol 4,5-diphosphate” (Bioorg Med Chem Lett, 1993)
